Measurements: patent US6498183B1, “Substituted indole sulfonamides as anitviral agents” (Bayer Aktiengesellschaft, priority 1999, dated 2002)

Columns and labels:
[1] = tested on: human cytomegalovirus (HCMV); test: anti-HCMV screening test (cytopathogenic effect) in HELF cell cultures; type: cell-based; settings: Human betaherpesvirus 5; HCMV-infected HELF cells, 96-well plates; concentration giving 50% inhibition of virus activity (CPE, Neutral Red)
Protocol: The anti-HCMV action was determined in a screening test system in 96-well microtitre plates with the assistance of human embryonic lung fibroblasts (HELF) cell cultures. The affect of these substances on the extent of the cytopathogenic effect was determined by comparison with the reference substance ganciclovir (Cymevene^R sodium), a clinically approved anti-HCMV chemotherapeutic agent (EC50, corresponding to the effective concentration at which a 50% inhibition of virus activity is achieved).
The substances dissolved (50 mM) in DMSO (dimethyl sulphoxide) are investigated on microtitre plates (96-well) in duplicate determinations (4 substances/plate). Toxic and cytostatic effects of the substances are also detected thereby (CC50, corresponding to the concentration at which half the cells are destroyed owing to administration of the substance). […]
After this time, the cell lawn in the virus controls free of substance, starting from 50-100 infectious centres, is completely destroyed by the cytopathogenic effect of the HCMV (100% CPE). After staining with Neutral Red and fixing with formalin/methanol, the plates are evaluated using a projection microscope (plaque viewer).

[2] = toxic and cytostatic effects on HELF cells in the anti-HCMV screening test; type: cell-based; settings: human, concentration at which half the cells are destroyed
Protocol: The substances dissolved (50 mM) in DMSO (dimethyl sulphoxide) are investigated on microtitre plates (96-well) in duplicate determinations (4 substances/plate). Toxic and cytostatic effects of the substances are also detected thereby (CC50, corresponding to the concentration at which half the cells are destroyed owing to administration of the substance). After the appropriate substance dilutions (1:2) on the microtitre plate, a suspension of 50-100 HCMV-infected HELF cells and […] uninfected HELF cells in Eagle's MEM with 10% fetal calf serum are put in each well, and the plates are incubated at 37° C. in a CO2 incubator for several days. After this time, the cell lawn in the virus controls free of substance, starting from 50-100 infectious centres, is completely destroyed by the cytopathogenic effect of the HCMV (100% CPE). After staining with Neutral Red and fixing with formalin/methanol, the plates are evaluated using a projection microscope (plaque viewer).

| EC50 [1] | SMILES | CC50 [2] |
| --- | --- | --- |
| 0.055 µM | CCn1ccc2cc(S(=O)(=O)Nc3cccc(NC(=O)C(C)(C)CF)c3)ccc21 [Example 1, N-[(N-Ethylindole)-5-sulphonyl]-N′-(3-fluoro-2,2-dimethylpropanoyl)-1,3-diamino-benzene] | 15.6 µM |
| 0.39 µM | CC(=O)n1ccc2cc(S(=O)(=O)Nc3ccc(C(=O)NC(C)(C)C)cc3)ccc21 [Example 2, 4-[N-Acetylindole-5-sulphonylamino]-N-(tert-butyl)benzamide] | 86 µM |
